Data reported in patent US20100093541A1, “HERBICIDE COMBINATION COMPRISING DIMETHOXYTRIAZINYL SUBSTITUTED DIFLUOROMETHANESULFONYLANILIDES” (BAYER CROPSCIENCE AG, priority 2008, published 2010).

What was measured:
Assay type in all cases: in vivo
[1] = system: Triticum aestivum (TRZAS); test: Post-emergence action, greenhouse pot test, visual scoring
Procedure: (§1) Seeds or rhizome pieces of mono- and dicotyledonous harmful and useful plants were placed in peat pots (diameter 4 cm) filled with sandy loam and then covered with soil. The pots were kept in a greenhouse under optimum conditions. In addition, harmful plants encountered in paddy rice cultivation were cultivated in pots with a water level 2 cm above the soil surface.
(§2) About three weeks after the start of the cultivation, the test plants were treated at the 2- to 3-leaf stage. The herbicides, formulated as powder or liquid concentrates, were, either alone or in the combinations according to the invention, sprayed in various dosages on to the green parts of the plants using an application rate of 600 l of water/ha (converted). For further cultivation of the plants, the pots were then again kept under optimum conditions in a greenhouse.
(§3) The visual scoring of the herbicidal effects was carried out in intervals up to 21 days after the treatment. Scoring was carried out in percent in comparison to the untreated control plants. 0%=no herbicidal activity, 100%=complete herbicidal activity=complete kill.
(§4) The percentages from the treatments with the herbicides alone (=individual application) and with the combinations according to the invention (=mixtures) were employed to calculate interactions using the method of Colby. When the observed efficacies of the mixtures exceed the formal sum of the values of the tests with individual applications, they also exceed the expected value according to Colby, which is calculated using the formula below (cf. S. R. Colby; in Weeds 15 (1967) pp. 20 to 22):
(§5) • A, B=activity of components A and B in percent at a dosage of a and b g of ai/ha (=gramm of active substance per hectare), respectively. • E=expected value in % at a dosage of a+b g of ai/ha.
(§6) The combinations according to the invention of herbicides from group (A) with herbicides from group (B) were tested on a broad spectrum of important harmful plants (weed grasses, broad-leaved weeds/Cyperaceae) and useful plants: Triticum aestivum (TRZAS), Stellaria media (STEME), Lolium multiflorum (LOLMU), Veronica persica (VERPE), Alopecurus myosuroides (ALOMY), Matricaria inodora (MATIN), Brassica napus (BRSNW), Viola tricolor (VIOTR), Avena fatua (AVEFA), Amaranthus retroflexus (AMARE), Zea mays (ZEAMX), Pharbitis purpurea (PHBPU), Setaria viridis (SETVI), Fallopia (ex Polygonum) convolvulus (POLCO), Echinochloa crus-galli (ECHCG), Abuthilon theophrasti (ABUTH), Cyperus esculentus (CYPES), Oryza sativa (ORYSA).
(§7) Of particular interest are the results shown in the tables (Tab.) below, where the following key is used: • (1) EPPO code (former Bayer code) for the treated plant (see above) • (2) Time of scoring: DAT (days after treatment) • (3) Component A tested (identifying number) • (4) Component B tested (identifying number) • (5) Dosage component A [g of ai/ha] • (6) Dosage component B [g of ai/ha] • (7) % activity found • (8) E value (calculated according to Colby; see above) • (9) Comments: “SYNERGY”=synergistic interaction (E value<% activity found); “SAFENING”=safener action on useful plant (E value>% activity found)

[2] = system: Cyperus esculentus (CYPES); test: Post-emergence action against weeds, greenhouse pot test, visual scoring
Procedure: as §1, §2, §3, §4, §5

Zea mays (ZEAMX) = test: Post-emergence action, greenhouse pot test, visual scoring
Procedure: as §1, §2, §3, §4, §5, §6, §7

Oryza sativa (ORYSA) = test: as above; conditions: 21 DAT, component B 150 g of ai/ha
Procedure: as §1, §2, §3, §4, §5, §6, §7

Viola tricolor (VIOTR) = test: Post-emergence action against weeds, greenhouse pot test, visual scoring
Procedure: as §1, §2, §3, §4, §5, §6, §7

[3] = system: Fallopia (ex Polygonum) convolvulus (POLCO); test: as above; conditions: 10 DAT, component B 150 g of ai/ha
Procedure: as §1, §2, §3, §4, §5, §6, §7

[4] = system: Matricaria inodora (MATIN); test: as above; conditions: 21 DAT
Procedure: as §1, §2, §3, §4, §5, §6, §7

Setaria viridis (SETVI) = test: as above
Procedure: as §1, §2, §3, §4, §5, §6, §7

Avena fatua (AVEFA) = test: as above
Procedure: as §1, §2, §3, §4, §5, §6, §7

[5] = system: Alopecurus myosuroides (ALOMY); test: as above; conditions: 21 DAT, component B 40 g of ai/ha
Procedure: as §1, §2, §3, §4, §5, §6, §7

[6] = 10 DAT, component B 50 g of ai/ha
[7] = 21 DAT, component B 50 g of ai/ha
[8] = 21 DAT, component B 150 g of ai/ha
[9] = 21 DAT, component B 120 g of ai/ha
[10] = 21 DAT, component B 40 g of ai/ha

SMILES: COc1nc(OC)nc(C(=O)c2cccc(F)c2N(C)S(=O)(=O)C(F)F)n1 [A-1]
- % activity found ([1]; 21 DAT, component A 12 g of ai/ha, Table 16): 0%

SMILES: N#Cc1cc(Br)c(O)c(Br)c1 [B1-1, 3,5-dibromo-4-hydroxybenzonitrile]
- % activity found [2, 6]: 0%
- % activity found [2, 7]: 0%
- % activity found [2, 8]: 0%
- % activity found (Zea mays (ZEAMX); [6]): 0%
- % activity found (Zea mays (ZEAMX); 10 DAT, component B 150 g of ai/ha): 20%
- % activity found (Zea mays (ZEAMX); [7]): 0%
- % activity found (Oryza sativa (ORYSA)): 0%
- % activity found [1, 8]: 0%
- % activity found (Viola tricolor (VIOTR); [6]): 20%
- % activity found (Viola tricolor (VIOTR); [8]): 20%
- % activity found [3]: 10%
- % activity found ([4]; component B 150 g of ai/ha): 70%
- % activity found ([4]; component B 150 g of ai/ha, Table 9): 60%
- % activity found (Setaria viridis (SETVI); [6]): 20%
- % activity found (Setaria viridis (SETVI); [7]): 20%
- % activity found (Setaria viridis (SETVI); [8]): 20%
- % activity found (Avena fatua (AVEFA); [6]): 0%

SMILES: C#CCN(C)c1c(C#N)cnn1-c1nn2c(c1Cl)CCCC2 [B1-4, 1-(3-chloro-4,5,6,7-tetrahydropyrazolo[1,5-a]pyridin-2-yl)-5-(methyl-2-propynylamino)-1H-pyrazole-4-carbonitrile]
- % activity found [2, 9]: 40%
- % activity found ([1]; 10 DAT, component B 40 g of ai/ha): 40%
- % activity found ([1]; 10 DAT, component B 120 g of ai/ha): 60%
- % activity found [1, 10]: 30%
- % activity found [1, 9]: 60%
- % activity found [5]: 30%
- % activity found ([4]; component B 120 g of ai/ha): 80%
- % activity found (Avena fatua (AVEFA); [10]): 40%
